# In patent publication US20020177168A1, “Chemical sensor and method of detecting chemicals” (priority 2000, published 2002):
# Experiments:
# OBPb [1] = molecular target: T1, OBPb (Bos taurus, UniProt P07435); test: Dissociation constant KD of odorant for OBPb; format: binding, bovine; conditions: affinity of odorant for OBPb
# T1 sequence (P07435 1-159): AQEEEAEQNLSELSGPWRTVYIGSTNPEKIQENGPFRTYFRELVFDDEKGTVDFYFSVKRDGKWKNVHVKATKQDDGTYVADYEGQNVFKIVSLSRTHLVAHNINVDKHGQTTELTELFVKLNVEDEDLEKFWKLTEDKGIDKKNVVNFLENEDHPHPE
# OBPb [2] = molecular target: T1, OBPb; test: Time variation of tryptophane and AMA fluorescence upon addition of AMA to OBPb; format: binding, bovine; conditions: ex 295 nm
# Procedure: (§1) An OBPb solution of 10 μM in concentration was prepared. AMA, DMO and geraniol were dissolved in ethanol respectively, for preparing an AMA solution, a DMO solution and a geraniol solution of 10^−2 M in concentration.
# Then, time variations of fluorescence from AMA and fluorescence from tryptophane upon addition of AMA were measured. FIG. 13 illustrates results of measurement of fluorescence intensity change of tryptophane bonded with AMA. The excitation wavelength for tryptophane is 295 nm, and the fluorescence wavelength is 340 nm. FIG. 14 illustrates results of measurement of fluorescence intensity change of AMA bonded with […]. The excitation wavelength for AMA is 295 nm, and the fluorescence wavelength is 480 nm. Referring to FIGS. 13 and 14, the horizontal axes show post-addition elapsed times, and the vertical axis show relative fluorescence intensity difference levels. The relative fluorescence intensity difference was calculated by dividing the difference between fluorescence intensity at a time 0 and fluorescence intensity at each time by the fluorescence intensity at the time 0.
# [3] = molecular target: T2, bovine derivation odorant binding protein (OBPb) (Bos taurus, UniProt P07435); test: Fluorometry of OBPb with DMO and BPA at different concentrations (Inventive Example 2); conditions: for attenuation of fluorescence intensity versus concentration: 10^−9 to 10^−6 M
# T2 sequence (P07435 1-159): T1 sequence (P07435 1-159)
# Procedure: In preparation of the OBPb solution employed for Inventive Example 2, an OBPb solution of 250 nM in concentration was prepared by a method similar to that in Inventive Example 1.
# In preparation of the DMO solutions and the BPA solutions employed for Inventive Example 2, on the other hand, two types of odorants of DMO and BPA were dissolved in ethanol (EtOH) respectively, for preparing a solution of 10^−2 M in concentration as to each odorant. Further, the DMO solution and the BPA solution of 10^−2 M in concentration prepared in the aforementioned manner were diluted with EtOH respectively, thereby preparing solutions of 10^−3 M, 10^−4 M, 10^−5 M and 10^−6 M in concentration respectively. Thus, DMO solutions and BPA solutions of 10^−3 M, 10^−4 M, 10^−5 M and 10^−6 M in concentration were prepared.
# 300 μl of the OBPb solution of 250 nM in concentration and 0.3 μl of each of the DMO solutions of 10^−3 M, 10^−4 M, 10^−5 M and 10^−6 M in concentration prepared in the aforementioned manner were mixed with each other thereby preparing sample solutions having final DMO concentrations of 10^−9 M, 10^−8 M, 10^−7 M and 10^−6 M respectively. Sample solutions having final concentrations of 10^−9 M, 10^−8 M, 10^−7 M and 10^−6 M respectively were prepared also as to BPA by a preparation method similar to that for the case of DMO.
# After preparing the sample solutions in the aforementioned manner, the fluorescence intensity was measured as to each sample solution by a method similar to that in Inventive Example 1. Further, the relation between the concentrations and the fluorescence intensity of DMO and BPA was investigated on the basis of results at a point after a lapse of 20 minutes from initiation of measurement and at a point after a lapse of 30 minutes from initiation of measurement among results obtained by measuring the fluorescence intensity.
# Also in this case, the point of initiation of measurement was set to the point of an elapsed time of 0 minutes while setting the fluorescence intensity at this point to 100% as a reference value for calculating a relative value of the fluorescence intensity at each point on the basis of this reference value.
# OBPb bonded with AMA = molecular target: T3, OBPb bonded with AMA (Bos taurus, UniProt P07435); test: Substitution of AMA bonded to OBPb by other odorants (AMA and tyrosine fluorescence); format: binding, bovine; conditions: for fluorescence intensity of tyrosine on adding the odorant: ex 250 nm, em 300 nm, immediately after addition (0 minutes); for fluorescence intensity of AMA / dissociation of AMA from OBPb on adding the odorant: ex 295 nm, em 481 nm, 0 minutes
# T3 sequence (P07435 1-159): T1 sequence (P07435 1-159)
# Procedure: Further, investigation was made as to how an odorant once bonded to OBPb behaves when other odorants are thereafter bonded. Aminoanthracene (AMA) which is a fluorescent odorant was employed as a previously bonded odorant, and DMO and geraniol were used as odorants added to the AMA bond.
# as §1
# First, 0.1 μl of an AMA solution was added to 100 μl of an OBPb solution, and left to stand at 25° C. for one hour for bonding AMA to OBPb. Phosphate buffer saline (PBS) was added to this solution up to 4 ml (diluted to 40 times), 4 μl of ethanol, DMO or geraniol was added and thereafter parts of 300 μl were taken out after lapses of 0, 5, 10, 15, 20, 25, 30, 40 and 60 minutes for measuring fluorescence intensity of AMA (excitation wavelength: 295 nm, measurement wavelength: 481 nm) and fluorescence intensity of […].
# In measurement of the fluorescence intensity of tyrosine, the excitation wavelength is 250 nm, and the measurement wavelength is 300 nm. Tyrosine is present in an internal cavity of a monomer of OBPb. Therefore, dissociation of the odorant from the internal cavity IC can be measured by change of the fluorescence intensity of tyrosine (the fluorescence reduces when tyrosine becomes hydrophilic).
# [4] = molecular target: T4, OBPb-del (OBPb with Phe 149 up to Glu 159 deleted) (Bos taurus, UniProt P07435); test: Relative tryptophane fluorescence intensity change after DMO addition, OBP-del; format: binding, bovine; conditions: DMO 10 μM, OBPb 250 nM, 25 degrees, ex 295 nm, em 340 nm
# T4 construct: made in house
# T4 sequence (P07435 1-148): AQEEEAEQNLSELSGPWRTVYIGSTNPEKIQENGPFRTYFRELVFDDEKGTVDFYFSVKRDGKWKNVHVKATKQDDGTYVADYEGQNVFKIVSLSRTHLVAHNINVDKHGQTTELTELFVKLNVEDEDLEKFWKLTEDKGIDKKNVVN
# Procedure: (§2) OBPb-norm shown in FIG. 7(a) is normal (unvaried) OBPb. OBPb-del shown in FIG. 7(b) is OBPb obtained by deleting Phe (phenylalanine) 149 up to Glu (glutamic acid) 159.
# (§3) As to the OBPb-norm and the OBP-del, the relation between post-addition elapsed times and change of relative fluorescence intensity was investigated by adding dimethyl octanol (DMO) employed as an odorant to OBPb solutions.
# (§4) The concentration of OBPb in PBS was set to 250 nM, and the concentration of a DMO solution was set to 10 μM. The DMO solution was added to the OBPb solution, which in turn was thereafter incubated at 25 degrees, for taking out part at each time and measuring fluorescence (excitation wavelength: 295 nm, fluorescence wavelength: 340 nm) of tryptophane present in the central pocket CP.
# (§5) The difference in relative fluorescence intensity was calculated by dividing the difference between fluorescence intensity at a time 0 and fluorescence intensity at each time by the fluorescence intensity at the time 0.
# OBPb-norm (normal OBPb) = molecular target: T5, OBPb-norm (normal OBPb) (Bos taurus, UniProt P07435); test: Relative tryptophane fluorescence intensity change after DMO addition, OBPb-norm; format: binding, bovine; conditions: DMO 10 μM, OBPb 250 nM, 25 degrees, ex 295 nm, em 340 nm
# T5 sequence (P07435 1-159): T1 sequence (P07435 1-159)
# Procedure: as §2, §3, §4, §5
# OBP-del = molecular target: T6, OBP-del (Bos taurus, UniProt P07435); test: Time variation of peaks of tryptophane difference fluorescence spectra, OBP-del; format: binding, bovine; conditions: during bonding reaction, 0 to 60 minutes
# T6 construct: made in house
# T6 sequence (P07435 1-148): T4 sequence (P07435 1-148)
# Source text: (§6) Then, time variations of peaks of fluorescence spectra of tryptophane in central pockets CP bonded with odorants were investigated as to DMO and geraniol employed as odorants.
# (§7) When tryptophane is in OBPb, the peak wavelength of the fluorescence spectrum of tryptophane is 345 nm. In general, the fluorescence wavelength of tryptophane shifts to a longer wavelength in hydrophilic environment, and shifts to a shorter wavelength in hydrophobic environment. At this point, a fluorescence spectrum upon bonding with an odorant was measured for calculating difference between the same and a spectrum at 0 minutes and investigating the relation between the peak intensity and the elapsed time.
# (§8) The difference spectrum was calculated by subtracting the fluorescence spectrum at each time from the fluorescence spectrum at 0 minutes. When a peak of the fluorescence spectrum at a certain time shifts to a shorter wavelength beyond 345 nm (i.e., rendered hydrophobic), therefore, it follows that the peak of the difference spectrum shifts to a longer wavelength beyond 345 nm to the contrary.
# [5] = molecular target: T7, OBPb-norm central pocket CP (Bos taurus, UniProt P07435); test: Time variation of peaks of tryptophane difference fluorescence spectra, OBPb-norm; format: binding, bovine; conditions: 0 to 60 minutes after addition
# T7 sequence (P07435 1-159): T1 sequence (P07435 1-159)
# Source text: as §6, §7, §8
# [6] = molecular target: T2, bovine derivation odorant binding protein (OBPb); test: Fluorometry of tryptophane fluorescence of OBPb with four odorants (Inventive Example 1); conditions: for affinity for the OBPb (relative, among the four odorants): FIG. 4(b); for reduction of the fluorescence intensity: odorant 10 μM, OBPb 250 nM, excitation 280 nm, fluorescence 340 nm, among the four odorants, FIG. 4(b) at 10 minutes
# Procedure: In order to prepare the OBPb solution employed for Inventive Example 1, bovine derivation odorant binding protein (OBPb) was first dissolved in a phosphate buffer (PBS; phosphate buffered saline), and PBS was further added to this OBPb solution for diluting the same until the concentration of the solution reached 250 nM.
# In order to prepare the odorant solution employed for Inventive Example 1, four types of odorants, i.e., dimethyl octanol (DMO), citronellal, citronellol and geraniol were dissolved in ethanol solutions (EtOH) respectively, for preparing an odorant solution of 10^−2 M in concentration as to each odorant.
# 300 μl of the OBPb solution of 250 nM in concentration and 0.3 μl of each odorant solution of 10^−2 M in concentration prepared in the aforementioned manner were mixed with each other for preparing a sample solution employed for measuring fluorescence intensity as to each of the four types of odorants. In this case, the final concentration of the odorant in each sample solution is 10 μM. A sample of only OBPb containing no odorant, i.e., that obtained by mixing an OBPb solution and an ethanol solution with each other, was also prepared as a comparative sample.
# Each sample solution prepared in the aforementioned manner was introduced into a quartz cell for fluorescence while sealing an opening for preventing evaporation. The aforementioned cell was set in a cell holder of a fluorometer (F-4000 by Hitachi, Ltd.) and left to stand for 10 minutes for temperature balancing.
# In measurement of the fluorescence intensity of each sample solution, a shutter of the fluorometer was first opened for irradiating the sample solution with light of 280 nm in wavelength from a slit of 10 nm in width and exciting tryptophane constituting the OBPb contained in the sample solution. Fluorescence of 340 nm in wavelength obtained from the tryptophane excited in this manner was taken out through the slit of 10 nm in width, for measuring the intensity of the obtained fluorescence.
# In this case, the switching time for the shutter of the fluorometer was set to two seconds for opening/closing the shutter at intervals of five minutes and measuring the fluorescence intensity of the sample solution over 30 minutes.
# Referring to FIG. 4, the point of initiation of measurement is set to the point of the elapsed time of 0 minutes, and the fluorescence intensity of the sample solution at this point is set to 100%. Thus, the fluorescence intensity at the elapsed time of 0 minutes, i.e., the point of initiation of measurement was set to 100% as to each sample solution for regarding this as a reference value and calculating a relative value of the fluorescence at each point every five minutes on the basis of this reference value.
compound,measurement,setting,value
"Nc1cccc2cc3ccccc3cc12 [AMA, Aminoanthracene]",Kd,OBPb [1],~1300 nM
same,fluorescence intensity of tryptophane after addition of AMA,OBPb [2]; em 340 nm,temporarily reduces after addition of AMA and thereafter increases
same,fluorescence intensity of AMA after addition of AMA,OBPb [2]; em 480 nm,"increases after addition of AMA, takes a constant value and thereafter reduces"
"CC(C)(c1ccc(O)cc1)c1ccc(O)cc1 [BPA, bisphenol A]",attenuation of fluorescence intensity versus concentration,[3]; after 20 and 30 minutes,attenuation of the fluorescence intensity is reduced as the concentration of DMO or BPA is increased
same,range in which discrimination based on the fluorescence intensity is possible,[3]; after 20 and 30 minutes,10^−9 M
same,range in which discrimination based on the fluorescence intensity is possible,[3]; conversion of 10^−9 M,about 200 ppt
CC(C)CCCC(C)CCO (stereo not shown) [DMO],fluorescence intensity of tyrosine on adding the odorant,OBPb bonded with AMA,No change of the fluorescence intensity was observed
same,fluorescence intensity of AMA / dissociation of AMA from OBPb on adding the odorant,OBPb bonded with AMA,AMA dissociates immediately after addition
same,relative fluorescence intensity change of tryptophane with time,[4],no variation with presence/absence of the odorant
same,relative fluorescence intensity change of tryptophane with time,OBPb-norm (normal OBPb),rises with time
same,Kd,OBPb [1],~300 nM
same,peak wavelengths of the difference spectra of tryptophane,OBP-del,remained unchanged
same,attenuation of fluorescence intensity versus concentration,[3]; after 20 and 30 minutes,attenuation of the fluorescence intensity is reduced as the concentration of DMO or BPA is increased
same,range in which discrimination based on the fluorescence intensity is possible,[3]; after 20 and 30 minutes,10^−9 M
same,range in which discrimination based on the fluorescence intensity is possible,[3]; conversion of 10^−9 M,about 200 ppt
same,bonding to the central pocket CP (from peak wavelengths of difference spectra),[5],dissociates after being bonded to the central pocket CP
same,"affinity for the OBPb (relative, among the four odorants)",[6],highest affinity
same,reduction of the fluorescence intensity,[6],at the minimum
CC(C)=CCC/C(C)=C/CO [geraniol],fluorescence intensity of tyrosine on adding the odorant,OBPb bonded with AMA,reduction of the fluorescence intensity was observed
same,fluorescence intensity of AMA / dissociation of AMA from OBPb on adding the odorant,OBPb bonded with AMA,AMA dissociates immediately after addition
same,Kd,OBPb [1],~3000 nM
same,peak wavelengths of the difference spectra of tryptophane,OBP-del,remained unchanged
same,bonding to the central pocket CP (from peak wavelengths of difference spectra),[5],remains bonded to the central pocket CP
same,"affinity for the OBPb (relative, among the four odorants)",[6],lowest affinity
same,reduction of the fluorescence intensity,[6],at the maximum
